SMILES strings stand for the structures. Counter-ions that a name gives are not always drawn.

The target of the assay is ROCK2 (Homo sapiens, UniProt O75116). In words: ROCK2 kinase inhibition assay (Caliper LABCHIP, FITC peptide substrate). Type of assay: biochemical. Particulars: 5 μM ATP, 1.5 μM peptide substrate; value ranges. A digest of the protocol: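 Dose-response curves gave IC50 from inhibition of peptide phosphorylation, measured by LabChip separation after EDTA stop. Reactions used 1.5 μM FITC-labelled peptide, 5 μM ATP, 20 mM HEPES pH 7.5 with MgCl2, Brij-35, DTT, and under 2% DMSO.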
Sequence of ROCK2 (O75116 whole entry, species assumed): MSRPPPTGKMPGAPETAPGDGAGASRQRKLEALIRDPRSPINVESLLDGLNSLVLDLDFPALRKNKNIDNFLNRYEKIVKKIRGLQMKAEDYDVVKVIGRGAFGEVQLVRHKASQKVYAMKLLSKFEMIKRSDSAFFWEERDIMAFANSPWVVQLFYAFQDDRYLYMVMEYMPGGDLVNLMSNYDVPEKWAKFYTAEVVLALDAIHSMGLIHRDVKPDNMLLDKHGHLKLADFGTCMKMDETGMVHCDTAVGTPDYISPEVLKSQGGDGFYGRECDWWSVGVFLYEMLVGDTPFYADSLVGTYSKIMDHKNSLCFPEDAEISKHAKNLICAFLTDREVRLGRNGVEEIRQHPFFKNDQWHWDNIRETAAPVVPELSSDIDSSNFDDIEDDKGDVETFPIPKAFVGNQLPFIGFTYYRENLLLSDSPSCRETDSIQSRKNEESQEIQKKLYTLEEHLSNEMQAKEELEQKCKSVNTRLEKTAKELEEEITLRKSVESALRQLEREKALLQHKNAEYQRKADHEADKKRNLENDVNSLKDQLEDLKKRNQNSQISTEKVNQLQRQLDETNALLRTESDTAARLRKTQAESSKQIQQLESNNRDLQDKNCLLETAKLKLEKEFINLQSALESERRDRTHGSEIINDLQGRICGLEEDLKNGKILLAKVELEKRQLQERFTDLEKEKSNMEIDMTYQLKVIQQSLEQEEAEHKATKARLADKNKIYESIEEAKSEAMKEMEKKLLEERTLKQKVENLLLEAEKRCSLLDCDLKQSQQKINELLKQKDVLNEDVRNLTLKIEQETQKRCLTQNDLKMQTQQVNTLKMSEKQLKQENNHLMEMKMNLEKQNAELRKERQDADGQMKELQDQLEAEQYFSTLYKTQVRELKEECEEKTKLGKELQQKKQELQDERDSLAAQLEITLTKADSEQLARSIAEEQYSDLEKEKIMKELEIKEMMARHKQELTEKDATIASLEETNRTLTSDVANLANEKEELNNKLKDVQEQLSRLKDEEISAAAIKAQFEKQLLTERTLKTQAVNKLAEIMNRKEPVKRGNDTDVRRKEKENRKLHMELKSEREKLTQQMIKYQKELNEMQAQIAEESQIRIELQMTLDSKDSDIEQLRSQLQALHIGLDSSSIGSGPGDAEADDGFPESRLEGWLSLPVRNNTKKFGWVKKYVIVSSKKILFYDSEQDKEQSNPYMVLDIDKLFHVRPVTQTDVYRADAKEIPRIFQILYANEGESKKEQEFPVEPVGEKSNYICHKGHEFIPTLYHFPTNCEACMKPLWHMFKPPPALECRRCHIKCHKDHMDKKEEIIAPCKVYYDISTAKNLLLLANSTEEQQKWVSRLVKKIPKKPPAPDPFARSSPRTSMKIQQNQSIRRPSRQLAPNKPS
As usually defined, the IC50 is the concentration that inhibits the measured activity by half. Turning to `COc1cccc(CN2C(=O)N(c3ccc(-c4cn[nH]c4)cc3)CC2C(C)(C)O)c1` (single isomer, unassigned) [Example 124, 1-(4-(1H-Pyrazol-4-yl)phenyl)-4-(2-hydroxypropan-2-yl)-3-(3-methoxybenzyl)imidazolidin-2-one], the IC50 was under 0.002 µM.
Under `COc1nc(-n2ccn(CC3CCCCC3)c2=O)ccc1-c1cn[nH]c1` [Example 420, 1-(cyclohexylmethyl)-3-(6-methoxy-5-(1H-pyrazol-4-yl)pyridin-2-yl)-1H-imidazol-2(3H)-one] stands 0.0201 to 0.2 µM.
Compound `COc1cccc(CN2C(=O)N(c3ccc(-c4cn[nH]c4)cc3)CC2CO)c1` (single isomer, unassigned; (+)) [Example 42, (+)-1-(4-(1H-Pyrazol-4-yl)phenyl)-4-(hydroxymethyl)-3-(3-methoxybenzyl)imidazolidin-2-one] registered an IC50 of under 0.002 µM.
Under `COc1cc(F)cc(CN2CCN(c3ccc(-c4cn[nH]c4)cn3)C2=O)c1` [Example 428, 1-(5-(1H-pyrazol-4-yl)pyridin-2-yl)-3-(3-fluoro-5-methoxybenzyl)imidazolidin-2-one] stands 0.0021 to 0.02 µM; under `CCc1cc(-n2ccn(Cc3cccc(OCC4CC4)c3)c2=O)ccc1-c1cn[nH]c1` [Example 455, 1-(3-(cyclopropylmethoxy)benzyl)-3-(3-ethyl-4-(1H-pyrazol-4-yl)phenyl)-1H-imidazol-2(3H)-one], 0.2 to 2 µM.
As for `CNC(=O)C(C)(c1cccc(OC)c1)N1CCN(c2ccc(-c3cn[nH]c3)cc2)C1=O` (single isomer, unassigned) [Example 304, 2-(3-(4-(1H-Pyrazol-4-yl)phenyl)-2-oxoimidazolidin-1-yl)-2-(3-methoxyphenyl)-N-methylpropanamide], the IC50 was 0.2 to 2 µM.
Under `COc1cc(CN2CCN(c3ccc(-c4cn[nH]c4)c(C(F)(F)F)c3)C2=O)ccc1F` [Example 283, 1-(4-(1H-pyrazol-4-yl)-3-(trifluoromethyl)phenyl)-3-(4-fluoro-3-methoxybenzyl)imidazolidin-2-one] stands 0.2 to 2 µM.
The value for `COc1cccc(CN2C(=O)N(c3ccc(-c4cn[nH]c4)cc3)CC2CO)c1` (racemic) [Example 37, 1-(4-(1H-Pyrazol-4-yl)phenyl)-4-(hydroxymethyl)-3-(3-methoxybenzyl)imidazolidin-2-one] was under 0.002 µM; that for `CCc1cc(-n2ccn(Cc3cccc(OC)c3)c2=O)ccc1-c1cn[nH]c1` [Example 453, 1-(3-ethyl-4-(1H-pyrazol-4-yl)phenyl)-3-(3-methoxybenzyl)-1H-imidazol-2(3H)-one] was 0.0201 to 0.2 µM; that for `O=C1N(Cc2ccccc2F)CCN1c1ccc(-c2ccncc2)cc1` [Example 57, 1-(2-fluorobenzyl)-3-(4-(pyridin-4-yl)phenyl)imidazolidin-2-one, TFA] was 0.2 to 2 µM.
Under `O=C1N(c2ccc(-c3cn[nH]c3)cc2)CCN1C(CO)c1ccccc1` (single isomer, unassigned) [Example 162, 1-(4-(1H-pyrazol-4-yl)phenyl)-3-(2-hydroxy-1-phenylethyl) imidazolidin-2-one] stands 0.2 to 2 µM.
On to `COc1cccc(Cn2ccn(-c3ccc(-c4cn[nH]c4)cc3)c2=O)c1F` [Example 337, 1-(4-(1H-pyrazol-4-yl)phenyl)-3-(2-fluoro-3-methoxybenzyl)-1H-imidazol-2(3H)-one], for which the IC50 fell in the range of 0.0201 to 0.2 µM.
As to `COc1cccc(CN2CC(=O)N(c3ccc(-c4cn[nH]c4)c(OC)c3)C2=O)c1` [Example 93, 3-(3-methoxy-4-(1H-pyrazol-4-yl)phenyl)-1-(3-methoxybenzyl)imidazolidine-2,4-dione, TFA], the IC50 is 0.0201 to 0.2 µM.
`CCc1cc(N2CCN(Cc3cccc(OC)c3)C2=O)ccc1-c1cn[nH]c1` [Example 23, 1-(3-Ethyl-4-(1H-pyrazol-4-yl)phenyl)-3-(3-methoxybenzyl)imidazolidin-2-one] gave a concentration for half-maximal inhibition (IC50) of 0.0021 to 0.02 µM.
Turning to `COc1cc(F)cc(CN2C(=O)N(c3ccc(-c4cn[nH]c4)cn3)CC2(C)C)c1` [Example 458, 1-(5-(1H-pyrazol-4-yl)pyridin-2-yl)-3-(3-fluoro-5-methoxybenzyl)-4,4-dimethylimidazolidin-2-one], the IC50 lay in the range of 0.0021 to 0.02 µM.
Under `COc1cccc(C(C)N2CCN(c3ccc(-c4cn[nH]c4)c(C)n3)C2=O)c1` (single isomer, unassigned) [Example 182, 1-(1-(3-methoxy-phenyl)-ethyl)-3-(6-methyl-5-(1H-pyrazol-4-yl)pyridin-2-yl)-imidazolidin-2-one] stands 0.2 to 2 µM; under `COc1cccc(CN2C(=O)N(c3ccc(-c4cn[nH]c4)cc3)CC2(C)C)c1F` [Example 143, 1-(4-(1H-pyrazol-4-yl)phenyl)-3-(2-fluoro-3-methoxy-benzyl)-4,4-dimethyl-imidazolidin-2-one], 0.0201 to 0.2 µM.
The value for `O=c1n(Cc2ccc(F)cc2F)ccn1-c1ccc(-c2cn[nH]c2)cc1` [Example 409, 1-(4-(1H-pyrazol-4-yl)phenyl)-3-(2,4-difluorobenzyl)-1H-imidazol-2(3H)-one] was 0.0201 to 0.2 µM; that for `O=c1n(Cc2cc(F)cc(OCC3CC3)c2)ccn1-c1ccc(-c2cn[nH]c2)cc1` [Example 396, 1-(4-(1H-pyrazol-4-yl)phenyl)-3-(3-(cyclopropylmethoxy)-5-fluorobenzyl)-1H-imidazol-2(3H)-one] was 0.0201 to 0.2 µM; that for `COc1cc(F)cc(CN2C(=O)N(c3ccc(-c4cn[nH]c4)cn3)C[C@H]2CO)c1` [Example 312, (S)-1-(5-(1H-pyrazol-4-yl)pyridin-2-yl)-3-(3-fluoro-5-methoxybenzyl)-4-(hydroxymethyl)imidazolidin-2-one] was 0.0021 to 0.02 µM.
On to `COCC(c1cccc(OC)c1)N1CCN(c2ccc(-c3cn[nH]c3)cc2)C1=O` (single isomer, unassigned) [Example 157, 1-(4-(1H-Pyrazol-4-yl)phenyl)-3-(2-methoxy-1-(3-methoxyphenyl)ethyl)imidazolidin-2-one], for which the IC50 was in the range of 0.2 to 2 µM.
Under `O=c1n(CCc2ccccc2)ccn1-c1ccc(-c2cn[nH]c2)cc1` [Example 335, 1-(4-(1H-pyrazol-4-yl)phenyl)-3-phenethyl-1H-imidazol-2(3H)-one] stands 0.0201 to 0.2 µM; under `COc1cccc(CN2CCN(c3ccc(-c4cn[nH]c4)cn3)C2=O)c1F` [Example 427, 1-(5-(1H-pyrazol-4-yl)pyridin-2-yl)-3-(2-fluoro-3-methoxybenzyl)imidazolidin-2-one], 0.0201 to 0.2 µM.
As to `COc1cccc(C(C)(C(N)=O)N2CCN(c3ccc(-c4cn[nH]c4)cc3)C2=O)c1` (stereo not drawn) [compound 306, 2-(3-(4-(1H-pyrazol-4-yl)phenyl)-2-oxoimidazolidin-1-yl)-2-(3-methoxyphenyl)propanamide], the concentration for half-maximal inhibition (IC50) was in the range of 0.0201 to 0.2 µM.
Under `COc1cc(N2CC(=O)N(Cc3ccccc3F)C2=O)ccc1-c1cn[nH]c1` [Example 99, 3-(2-fluorobenzyl)-1-(3-methoxy-4-(1H-pyrazol-4-yl)phenyl)imidazolidine-2,4-dione] stands 0.0201 to 0.2 µM; under `O=C1N(Cc2cccc(F)c2)CC(CO)N1c1ccc(-c2cn[nH]c2)cc1` (stereo not drawn) [Example 39, 3-(4-(1H-Pyrazol-4-yl)phenyl)-1-(3-fluorobenzyl)-4-(hydroxymethyl)imidazolidin-2-one], 0.0021 to 0.02 µM.
Turning to `CC(c1cccc(OCC2CC2)c1)N1CCN(c2ccc(-c3cn[nH]c3)cc2)C1=O` (single isomer, unassigned) [Example 196, 1-(4-(1H-pyrazol-4-yl)-phenyl)-3-(1-(3-(cyclo-propyl-methoxy)-phenyl)-ethyl)-imidazolidin-2-one], the IC50 was 0.0021 to 0.02 µM.
For `O=C1N(Cc2cccc(F)c2)CCN1c1ccc(-c2cn[nH]c2)cc1` [Example 4, 1-(4-(1H-pyrazol-4-yl)phenyl)-3-(3-fluorobenzyl)imidazolidin-2-one], the IC50 was in the range of 0.0021 to 0.02 µM.
Under `COc1cccc(CN2CCN(c3ccc(-c4cn[nH]c4)cc3)C2=O)c1` [Example 2, 1-(4-(1H-pyrazol-4-yl)phenyl)-3-(3-methoxybenzyl)imidazolidin-2-one] stands 0.0021 to 0.02 µM; under `COc1cccc(C(C(=O)NCC2CC2)N2CCN(c3ccc(-c4cn[nH]c4)cc3)C2=O)c1` (single isomer, unassigned) [Example 296, 2-(3-(4-(1H-pyrazol-4-yl)phenyl)-2-oxoimidazolidin-1-yl)-N-(cyclopropylmethyl)-2-(3-methoxyphenyl)acetamide], 0.0201 to 0.2 µM; under `COc1cccc(C(C(=O)O)n2ccn(-c3ccc(-c4cn[nH]c4)c(OC)c3)c2=O)c1` (stereo not drawn) [Example 352, 2-(3-(3-methoxy-4-(1H-pyrazol-4-yl)phenyl)-2-oxo-2,3-dihydro-1H-imidazol-1-yl)-2-(3-methoxyphenyl)acetic acid], 0.2 to 2 µM.
`CCc1nc(N2CCN(Cc3cc(F)cc(OC)c3)C2=O)ccc1-c1cn[nH]c1` [Example 168, 1-(6-ethyl-5-(1H-pyrazol-4-yl)pyridin-2-yl)-3-(3-fluoro-5-methoxy-benzyl) imidazolidin-2-one]: the half-maximal inhibitory concentration (IC50) was under 0.002 µM.
Under `COc1cccc(CN2CCN(c3ccc(-c4cn[nH]c4)c(C4CC4)c3)C2=O)c1` [Example 468, 1-(3-cyclopropyl-4-(1H-pyrazol-4-yl)phenyl)-3-(3-methoxybenzyl)imidazolidin-2-one] stands 0.0201 to 0.2 µM.
Consider `CCc1nc(-n2ccn(C(C)c3cccc(OC)c3)c2=O)ccc1-c1cn[nH]c1` (single isomer, unassigned) [Example 184, 1-(6-ethyl-5-(1H-pyrazol-4-yl)pyridin-2-yl)-3-(1-(3-methoxy-phenyl)-ethyl)-1H-imidazol-2(3H)-one], for which the IC50 was 0.2 to 2 µM.
Under `COc1nc(N2CCN(Cc3ccc(F)cc3F)C2=O)ccc1-c1cn[nH]c1` [Example 245, 1-(2,4-difluorobenzyl)-3-(6-methoxy-5-(1H-pyrazol-4-yl)pyridin-2-yl)imidazolidin-2-one] stands 0.0201 to 0.2 µM; under `O=c1n(Cc2cccc(OCC3CC3)c2)ccn1-c1ccc(-c2cn[nH]c2)cn1` [Example 347, 1-(5-(1H-pyrazol-4-yl)pyridin-2-yl)-3-(3-(cyclopropylmethoxy)benzyl)-1H-imidazol-2(3H)-one], 0.0201 to 0.2 µM.

The values are drawn from patent US10123993B2, “Cyclic ureas as inhibitors of rock” (BRISTOL-MYERS SQUIBB COMPANY, priority 2015, dated 2018).
